How the values were obtained:
HadA [1] = target: T1, HadA (Ralstonia pickettii, UniProt Q53008); assay: X-ray crystal structure, […] Å; assay type: binding
T1 construct: recombinant, E. coli plasmid hadAWT-pET-11a; homotetramer (dimer of dimers); residues 1-517 by domain borders
T1 sequence (Q53008 1-517): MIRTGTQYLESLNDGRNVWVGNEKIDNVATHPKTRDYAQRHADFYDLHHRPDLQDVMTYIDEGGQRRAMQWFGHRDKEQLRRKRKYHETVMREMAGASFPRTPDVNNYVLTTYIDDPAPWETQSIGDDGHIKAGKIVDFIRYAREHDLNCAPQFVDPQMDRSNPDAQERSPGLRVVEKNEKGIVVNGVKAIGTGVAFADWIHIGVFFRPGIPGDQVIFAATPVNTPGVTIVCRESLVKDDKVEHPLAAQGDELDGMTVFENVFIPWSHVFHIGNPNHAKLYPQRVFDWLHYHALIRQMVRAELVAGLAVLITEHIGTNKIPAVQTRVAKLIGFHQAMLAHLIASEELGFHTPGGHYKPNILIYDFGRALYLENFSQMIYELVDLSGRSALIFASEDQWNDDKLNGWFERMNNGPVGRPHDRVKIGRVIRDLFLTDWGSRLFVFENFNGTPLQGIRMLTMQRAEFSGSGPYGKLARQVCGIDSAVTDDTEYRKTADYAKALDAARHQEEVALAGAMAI

HadA [2] = target: T1, HadA; assay: stopped-flow and HPLC of hydroquinone product; assay type: biochemical; conditions: 0.1-6.4 mM 4CP preincubated with enzyme; 25 μM FADH-; 20 mM Hepes pH 7.5; substrate inhibition by dead-end complex
[3] = target: the molecule itself; assay: crystal structure; HadA (0.3 mM) mixed with FADH- (12 mM) and 4NP (12 mM) in an anaerobic glove box, incubated 2 h; microbatch at 25 °C, sodium citrate, PEG3350, 5% trifluoroethanol, 0.1 M Bis-Tris propane pH 6.5; data at 100 K; molecular replacement with apo-HadA (PDB 6JHM chain A)

Molecule: O=[N+]([O-])c1ccc(O)cc1 [4-nitrophenol]
- X-ray crystal structure, 2.3 Å (HadA [1]; ternary complex with FADH-, active site of subunit A, second site at C/D dimer interface (two 4NP, quadruple π-stacking)): only one 4NP molecule could be clearly seen in the expected pocket of subunit A

Molecule: Oc1ccc(Cl)cc1 [4-chlorophenol]
- stopped-flow and HPLC of hydroquinone product (HadA [2]): increasing the 4CP concentration significantly altered the kinetics of the reaction

Molecule: Cc1cc2c(cc1C)N(C[C@H](O)[C@H](O)[C@H](O)COP(=O)(O)OP(=O)(O)OC[C@H]1O[C@@H](n3cnc4c(N)ncnc43)[C@H](O)[C@@H]1O)c1[nH]c(=O)[nH]c(=O)c1N2 [FADH^–]
- X-ray crystal structure, 2.3 Å (HadA [1]; ternary complex with 4NP): strong electron densities could be observed for all four FADH^– molecules

B1: wild-type HadA, flavin-dependent monooxygenase/dehalogenase component from Ralstonia pickettii (enzyme, UniProt Q53008 1-517, looked up)
chain: MIRTGTQYLESLNDGRNVWVGNEKIDNVATHPKTRDYAQRHADFYDLHHRPDLQDVMTYIDEGGQRRAMQWFGHRDKEQLRRKRKYHETVMREMAGASFPRTPDVNNYVLTTYIDDPAPWETQSIGDDGHIKAGKIVDFIRYAREHDLNCAPQFVDPQMDRSNPDAQERSPGLRVVEKNEKGIVVNGVKAIGTGVAFADWIHIGVFFRPGIPGDQVIFAATPVNTPGVTIVCRESLVKDDKVEHPLAAQGDELDGMTVFENVFIPWSHVFHIGNPNHAKLYPQRVFDWLHYHALIRQMVRAELVAGLAVLITEHIGTNKIPAVQTRVAKLIGFHQAMLAHLIASEELGFHTPGGHYKPNILIYDFGRALYLENFSQMIYELVDLSGRSALIFASEDQWNDDKLNGWFERMNNGPVGRPHDRVKIGRVIRDLFLTDWGSRLFVFENFNGTPLQGIRMLTMQRAEFSGSGPYGKLARQVCGIDSAVTDDTEYRKTADYAKALDAARHQEEVALAGAMAI
notes: HadA monooxygenase of the had pathway, Ralstonia pickettii; each protomer is described as N-terminal domain (residues 1-146), beta-sheet domain (147-275) and C-terminal domain (276-517); also called HadAWT; HadA monooxygenase; source: plasmid hadAWT-pET-11a
- stoichiometry N [3]: 4

B2: HadA Phe441Val variant (enzyme)
chain: MIRTGTQYLESLNDGRNVWVGNEKIDNVATHPKTRDYAQRHADFYDLHHRPDLQDVMTYIDEGGQRRAMQWFGHRDKEQLRRKRKYHETVMREMAGASFPRTPDVNNYVLTTYIDDPAPWETQSIGDDGHIKAGKIVDFIRYAREHDLNCAPQFVDPQMDRSNPDAQERSPGLRVVEKNEKGIVVNGVKAIGTGVAFADWIHIGVFFRPGIPGDQVIFAATPVNTPGVTIVCRESLVKDDKVEHPLAAQGDELDGMTVFENVFIPWSHVFHIGNPNHAKLYPQRVFDWLHYHALIRQMVRAELVAGLAVLITEHIGTNKIPAVQTRVAKLIGFHQAMLAHLIASEELGFHTPGGHYKPNILIYDFGRALYLENFSQMIYELVDLSGRSALIFASEDQWNDDKLNGWFERMNNGPVGRPHDRVKIGRVIRDLFLTDWGSRLVVFENFNGTPLQGIRMLTMQRAEFSGSGPYGKLARQVCGIDSAVTDDTEYRKTADYAKALDAARHQEEVALAGAMAI
notes: HadA monooxygenase, Ralstonia pickettii, with Phe441Val; same limits as the wild type (domains described over residues 1-517); source: site-directed mutagenesis of hadAWT-pET-11a
- binding result [3]: binds
